Structures can show the parent of a compound that is named as a salt. Numbered stars: 1 amine (or outer) side, 2 acyl side, 3 side chain; on linkers, the order of the positions; unused ones are H or OH. Bridge positions count the residues as written; N and C are the ends. Square brackets hold non-standard residues; d marks the D form. Peptide text beside a SMILES is read from it. * marks the point of attachment. X1 = O=C(O)CN1CCN(CC(=O)O)CCN(CC(=O)NCCSCc2cc(CSC[C@@H](CNC(=O)C3CCCC3)N[*:2])cc(C[*:1])c2)CCN(CC(=O)O)CC1; TBMB(SCH2CH2NH-DOTA) = O=C(O)CN1CCN(CC(=O)O)CCN(CC(=O)NCCSCc2cc(C[*:1])cc(C[*:2])c2)CCN(CC(=O)O)CC1; 1Nal = N[C@@H](Cc1cccc2ccccc12)C(=O)O; β3hC = N[C@@H](CS)CC(=O)O; Hexanoyl = CCCCCC(=O)*
Assays:
[1] = target: T1, human recombinant DPP4 protein (Homo sapiens, UniProt P27487); test: Inhibitory activity against DPP4 protease activity (H-Gly-Pro-AMC fluorescence); format: biochemical; details: 125 pM DPP4 working solution, 90 min at room temperature
T1 construct: purchased Acrobiosystems DP4-H5211
Experimental: The human recombinant DPP4 protein (Acrobiosystems, DP4-H5211) was formulated into a 125 pM working solution with an assay buffer (20 mM Tris-HCl, 100 mM NaCl), and the DPP4 substrate (H-Gly-Pro-AMC.HBr (LEONBIO, 115035-46-6)) was diluted to a 250 µM DPP4 substrate working solution with the assay buffer. 40 µl of DPP4 working solution and 20 µl of compounds at different concentrations (4-fold dilution) were taken, then 40 µl of DPP4 substrate working solution was added, and the mixture was uniformly mixed on a shaker at room temperature for 1 min. The uniformly mixed mixture was reacted at room temperature in the dark for 90 min. Reading was made by microplate reader at excitation and emission wavelengths of 380 nm and 460 nm. The original data was saved, and the IC50 value of the compound was obtained by analyzing the data with Graphpad PRISM.

[2] = in vitro; details: CD-1, mouse, plasma
Experimental: The plasma stability experiment was performed using plasma from CD-1 mice. The compounds were diluted to a concentration of 1 mM with methanol. To 0.792 mL of plasma, 8.00 µL of 1 mM of each test compound was added, and 50.0 µL of the plasma sample was taken after uniform mixing. The remaining sample was placed in a 37°C water bath and incubated for 24 h. […] After centrifugation, the sample was diluted 1-fold with 0.2% trifluoroacetic acid and analyzed by LC-MS/MS.

[3] = target: T2, human recombinant FAP protein (Homo sapiens, UniProt Q12884); test: Inhibitory activity against FAP protease activity (Z-Gly-Pro-AMC fluorescence); format: biochemical; details: 125 pM FAP working solution, 90 min at room temperature; read-out: FAP IC50
T2 construct: purchased Acrobiosystems FAP-H82Q6
T2 sequence (Q12884 1-760): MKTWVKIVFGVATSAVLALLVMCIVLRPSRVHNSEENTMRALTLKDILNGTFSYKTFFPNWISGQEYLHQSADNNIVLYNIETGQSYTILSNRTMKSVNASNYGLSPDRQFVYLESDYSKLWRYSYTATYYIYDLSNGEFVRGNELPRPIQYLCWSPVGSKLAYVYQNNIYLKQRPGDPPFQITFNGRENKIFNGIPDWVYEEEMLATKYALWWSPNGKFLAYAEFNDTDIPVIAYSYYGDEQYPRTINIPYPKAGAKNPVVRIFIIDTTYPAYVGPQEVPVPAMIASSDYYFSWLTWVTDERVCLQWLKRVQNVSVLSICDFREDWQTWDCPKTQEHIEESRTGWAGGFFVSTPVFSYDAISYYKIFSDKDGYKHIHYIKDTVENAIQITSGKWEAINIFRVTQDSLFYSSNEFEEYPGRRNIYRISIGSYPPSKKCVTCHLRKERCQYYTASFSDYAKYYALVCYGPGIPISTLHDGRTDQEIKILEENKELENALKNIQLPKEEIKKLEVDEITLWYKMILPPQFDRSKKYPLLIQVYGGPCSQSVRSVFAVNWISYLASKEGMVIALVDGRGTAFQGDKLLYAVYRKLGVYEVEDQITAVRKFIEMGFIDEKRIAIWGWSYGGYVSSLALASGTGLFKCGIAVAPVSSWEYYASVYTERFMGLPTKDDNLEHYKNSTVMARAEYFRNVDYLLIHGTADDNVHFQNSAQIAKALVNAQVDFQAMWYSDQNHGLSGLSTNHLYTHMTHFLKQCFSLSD
Experimental: The human recombinant FAP protein (Acrobiosystems, FAP-H82Q6) was diluted to a 125 pM FAP working solution with an assay buffer (50 mM Tris-HCl, 1 M NaCl, 1 mg/mL BSA, pH 7.5), and the FAP substrate (Z-Gly-Pro-AMC (LEONBIO, 68542-93-8)) was diluted to a 150 µM substrate working solution with the assay buffer. 40 µl of FAP working solution and 20 µl of compounds at different concentrations (4-fold dilution) were taken, then 40 µl of substrate working solution was added, and the mixture was uniformly mixed on a shaker at room temperature for 1 min. The uniformly mixed mixture was reacted at room temperature in the dark for 90 min. The fluorescence value Ex = 380 nm/Em = 460 nm was read by using a microplate reader. The original data was saved, and the IC50 value of the compound was obtained by using the original data or the Inhibition% via calculation and analyzing the data with Graphpad PRISM.

[4] = Pharmacokinetics after tail vein injection; format: in vivo, CD-1 mice; details: male, CD-1, mouse, in vivo, iv, 0.2 mg/kg
Experimental: Male CD-1 mice weighing 30-35 g were selected, and a test compound was injected into the tail vein at 0.2 mg/kg. Plasma samples were collected at 5, 15, 30, and 60 min and 2, 4, 8, and 24 h after administration and processed accordingly. The drug content was analyzed by LC-MS/MS.
Among them, compounds 20, 21 and 22 were compounds formed by chelating nonradioactive in with compounds 11, 14 and 16, respectively.

[5] = Distribution in tissues of HEK293-FAP tumor-bearing mice (gamma counter); format: in vivo, SCID mice; details: male, SCID, mouse, in vivo, 100 uCi, total radioactivity
Experimental: (§1) Male SCID mice (6-8 weeks old) were subcutaneously inoculated with 5 × 10^6 HEK293-FAP cells (FAP was highly expressed in HEK293 cells). 10 days later, 30 mice with tumor size of 200-300 mm^3 were randomly divided into 3 groups. Each mouse in the 3 groups was administered with compound ^177Lu-3BP-3554, compound 29 and compound 30 with a radiation dose of 100 µCi, respectively. Blood, kidney and tumor tissues were collected at time points of 4 h, 8 h, 24 h, 72 h and 168 h, and all blood samples and tissue samples were measured for radioactive counts by gamma counter.

[6] = test system: HEK293-FAP cells; test: as above; format: in vivo, SCID mice; details: for injection dose%/g tissue at different time points / tissue selectivity for kidney and blood tissues: mouse, in vivo; for Blood / Kidney / Tumor: 100 µCi, SCID mice with HEK293-FAP tumor
Experimental: as §1

T1 sequence (P27487 whole entry): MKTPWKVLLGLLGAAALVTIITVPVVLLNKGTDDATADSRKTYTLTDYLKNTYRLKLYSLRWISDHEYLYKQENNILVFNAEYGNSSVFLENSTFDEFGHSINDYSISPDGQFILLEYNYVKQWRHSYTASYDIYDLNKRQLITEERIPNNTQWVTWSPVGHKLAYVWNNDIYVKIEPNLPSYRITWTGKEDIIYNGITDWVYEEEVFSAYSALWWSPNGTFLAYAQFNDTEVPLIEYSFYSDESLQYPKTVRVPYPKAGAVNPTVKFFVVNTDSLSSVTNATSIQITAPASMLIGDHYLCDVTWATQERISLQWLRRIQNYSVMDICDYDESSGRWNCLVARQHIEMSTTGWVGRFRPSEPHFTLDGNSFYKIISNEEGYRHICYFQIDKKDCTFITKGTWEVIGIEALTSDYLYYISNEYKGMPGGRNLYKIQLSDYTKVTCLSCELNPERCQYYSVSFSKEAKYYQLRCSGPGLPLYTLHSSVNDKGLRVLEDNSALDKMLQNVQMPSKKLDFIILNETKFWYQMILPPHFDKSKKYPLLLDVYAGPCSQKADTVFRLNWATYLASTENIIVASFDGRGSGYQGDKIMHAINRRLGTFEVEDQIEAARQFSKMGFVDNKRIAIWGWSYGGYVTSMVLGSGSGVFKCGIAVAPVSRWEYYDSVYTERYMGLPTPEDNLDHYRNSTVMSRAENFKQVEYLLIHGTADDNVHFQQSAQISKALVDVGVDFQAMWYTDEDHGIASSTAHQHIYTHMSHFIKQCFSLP

CCCCCC(=O)N[C@H]1CSCc2cc(CSCCNC(=O)CN3CCN(CC(=O)O)CCN(CC(=O)O)CCN(CC(=O)O)CC3)cc(c2)CSC[C@@H](C(=O)O)NC(=O)[C@H](Cc2ccccc2)NC(=O)[C@H](CCC(N)=O)NC(=O)[C@H]([C@@H](C)O)NC(=O)[C@@H]2CCCN2C(=O)[C@@H]2CCCN2C1=O [Compound 3BP-3554, reference compound]
IC50 [1]: > 10 µM | remaining at 24 h, 10 µM [2]: 87%

CCCCCC(=O)N[C@H]1CSCc2cc(CSCCNC(=O)CN3CCN(CC(=O)O)CCN(CC(=O)O)CCN(CC(=O)O)CC3)cc(c2)CSC[C@@H](CC(=O)O)NC(=O)[C@H](Cc2cccc3ccccc23)NC(=O)[C@H](CCC(N)=O)NC(=O)[C@H]([C@@H](C)O)NC(=O)[C@@H]2CCCN2C(=O)[C@@H]2CCCN2C1=O [Compound 11, Hex-Cys-Pro-Pro-Thr-Gln-1Nal-beta-HomoCys (Cys bridge TBMB (DOTA-AET)) trifluoroacetate] (Hexanoyl-CPPTQ[1Nal][β3hC]-OH; linker 1-7 via TBMB(SCH2CH2NH-DOTA))
IC50 [1]: > 10 µM | remaining at 24 h, 10 µM [2]: 94% | IC50 [3]: 0.00026 µM

CCCCCC(=O)N[C@H]1CSCc2cc(CSCCNC(=O)CN3CCN(CC(=O)O)CCN(CC(=O)O)CCN(CC(=O)O)CC3)cc(c2)CSC[C@@H](CC(=O)O)NC(=O)[C@H](Cc2cccc3ccccc23)NC(=O)[C@H](CCC(N)=O)NC(=O)[C@H]([C@@H](C)O)NC(=O)[C@@H]2CCCN2C(=O)[C@@H]2CCCN2C1=O [Compound 20] (Hexanoyl-CPPTQ[1Nal][β3hC]-OH; linker 1-7 via TBMB(SCH2CH2NH-DOTA))
AUC(0-t) [4]: 308 ng·h/mL | Cmax [4]: 772 ng/mL | Vd [4]: 0.52 L/kg | clearance [4]: 10.2 mL/min/kg | half-life [4]: 1.63 h

CCCCCC(=O)N[C@H]1CSCc2cc(CSCCNC(=O)CN3CCN(CC(=O)O)CCN(CC(=O)O)CCN(CC(=O)O)CC3)cc(c2)CSC[C@@H](CNC(=O)C2CCCC2)NC(=O)[C@H](Cc2ccccc2)NC(=O)[C@H](CCC(N)=O)NC(=O)[C@H]([C@@H](C)O)NC(=O)[C@@H]2CCCN2C(=O)[C@@H]2CCCN2C1=O [Compound 21] (Hexanoyl-CPPTQF; linker 1-C via X1)
AUC(0-t) [4]: 634 ng·h/mL | Cmax [4]: 1010 ng/mL | Vd [4]: 0.22 L/kg | clearance [4]: 5.17 mL/min/kg | half-life [4]: 1.26 h

CCCCCC(=O)N[C@H]1CSCc2cccc(c2F)CSC[C@@H](CNC(=O)C[C@@H](C)NC(=O)[C@H]2CC[C@H](CNC(=O)CN3CCN(CC(=O)O)CCN(CC(=O)O)CCN(CC(=O)O)CC3)CC2)NC(=O)[C@H](Cc2ccccc2)NC(=O)[C@H](CCC(N)=O)NC(=O)[C@H]([C@@H](C)O)NC(=O)[C@@H]2CCCN2C(=O)[C@@H]2CCCN2C1=O [Compound 22]
AUC(0-t) [4]: 740 ng·h/mL | Cmax [4]: 1120 ng/mL | Vd [4]: 1.18 L/kg | clearance [4]: 4.33 mL/min/kg | half-life [4]: 7.93 h

CCCCCC(=O)N[C@H]1CSCc2cc(CSCCNC(=O)CN3CCN(CC(=O)O)CCN(CC(=O)O)CCN(CC(=O)O)CC3)cc(c2)CSC[C@@H](CC(=O)O)NC(=O)[C@H](Cc2cccc3ccccc23)NC(=O)[C@H](CCC(N)=O)NC(=O)[C@H]([C@@H](C)O)NC(=O)[C@@H]2CCCN2C(=O)[C@@H]2CCCN2C1=O [Compound 29] (Hexanoyl-CPPTQ[1Nal][β3hC]-OH; linker 1-7 via TBMB(SCH2CH2NH-DOTA))
tissue to tissue ratio at 4 h ([5]; Tumor/blood): 26.2 | tissue to tissue ratio at 8 h ([5]; Tumor/blood): 70.1 | tissue to tissue ratio at 24 h ([5]; Tumor/blood): 1630 | tissue to tissue ratio at 72 h ([5]; Tumor/blood): 2410 | tissue to tissue ratio at 168 h ([5]; Tumor/blood): 1160 | tissue to tissue ratio at 4 h ([5]; Tumor/kidney): 2.32 | tissue to tissue ratio at 8 h ([5]; Tumor/kidney): 3.18 | tissue to tissue ratio at 24 h ([5]; Tumor/kidney): 3.99 | tissue to tissue ratio at 72 h ([5]; Tumor/kidney): 7.12 | tissue to tissue ratio at 168 h ([5]; Tumor/kidney): 27.6 | injection dose%/g tissue at different time points [6]: significantly higher than that of ^177Lu-3BP-3554 | tissue selectivity for kidney and blood tissues [6]: better tissue selectivity for kidney and blood tissues than ^177Lu-3BP-3554

CCCCCC(=O)N[C@H]1CSCc2cccc(c2F)CSC[C@@H](CNC(=O)C[C@@H](C)NC(=O)[C@H]2CC[C@H](CNC(=O)CN3CCN(CC(=O)O)CCN(CC(=O)O)CCN(CC(=O)O)CC3)CC2)NC(=O)[C@H](Cc2ccccc2)NC(=O)[C@H](CCC(N)=O)NC(=O)[C@H]([C@@H](C)O)NC(=O)[C@@H]2CCCN2C(=O)[C@@H]2CCCN2C1=O [Compound 30]
tissue to tissue ratio at 4 h ([5]; Tumor/blood): 16.3 | tissue to tissue ratio at 8 h ([5]; Tumor/blood): 32.3 | tissue to tissue ratio at 24 h ([5]; Tumor/blood): 212 | tissue to tissue ratio at 72 h ([5]; Tumor/blood): 1100 | tissue to tissue ratio at 168 h ([5]; Tumor/blood): 484 | tissue to tissue ratio at 4 h ([5]; Tumor/kidney): 6.88 | tissue to tissue ratio at 8 h ([5]; Tumor/kidney): 5.56 | tissue to tissue ratio at 24 h ([5]; Tumor/kidney): 5.95 | tissue to tissue ratio at 72 h ([5]; Tumor/kidney): 6.98 | tissue to tissue ratio at 168 h ([5]; Tumor/kidney): 11.8 | injection dose%/g tissue at different time points [6]: significantly higher than that of ^177Lu-3BP-3554 | tissue selectivity for kidney and blood tissues [6]: better tissue selectivity for kidney and blood tissues than ^177Lu-3BP-3554

CCCCCC(=O)N[C@H]1CSCc2cc(CSCCNC(=O)CN3CCN(CC(=O)O)CCN(CC(=O)O)CCN(CC(=O)O)CC3)cc(c2)CSC[C@@H](C(=O)O)NC(=O)[C@H](Cc2ccccc2)NC(=O)[C@H](CCC(N)=O)NC(=O)[C@H]([C@@H](C)O)NC(=O)[C@@H]2CCCN2C(=O)[C@@H]2CCCN2C1=O [^177Lu-3BP-3554, metal not drawn, reference compound]
Blood ([6]; 4 h): 0.07 ID %/g | Kidney ([6]; 4 h): 6.65 ID %/g | Tumor ([6]; 4 h): 21.21 ID %/g | Blood ([6]; 8 h): 0.02 ID %/g | Kidney ([6]; 8 h): 6.37 ID %/g | Tumor ([6]; 8 h): 18.42 ID %/g | Blood ([6]; 24 h): 0.01 ID %/g | Kidney ([6]; 24 h): 2.92 ID %/g | Tumor ([6]; 24 h): 10.37 ID %/g | Blood ([6]; 72 h): 0.0038 ID %/g | Kidney ([6]; 72 h): 0.86 ID %/g | Tumor ([6]; 72 h): 5.05 ID %/g | Blood ([6]; 168 h): 0.0091 ID %/g | Kidney ([6]; 168 h): 0.16 ID %/g | Tumor ([6]; 168 h): 1.52 ID %/g
